Measurements published in patent US12612408B2, “Pyrazolone-fused pyrimidine compound, preparation method for same and applications thereof” (SHANGHAI PHARMACEUTICALS HOLDING CO., LTD., priority 2019, dated 2026).
Like-named read-outs stand apart in the source and are kept apart here. Blank lines part the entries; values can stand above or below the compound they belong to.

What was measured:
WEE1 kinase = molecular target: T1, WEE1 kinase (Homo sapiens, UniProt P30291); test: Inhibitory effect of compound on WEE1 kinase in vitro (ELISA); type: biochemical; details: ATP concentration of Km
T1 construct: purchased CarnaBiosciences, Inc. 05-177
Description: The tested compounds were screened on WEE1 kinase with ATP concentration of Km by ELISA. Compounds were screened on WEE1 kinase to evaluate the kinase inhibitory activity of the tested compounds. In the detection process, the initial concentration of the tested compounds was all selected as 100 nM, and each compound was selected with 6 gradient dilution concentrations, the gradient dilution ratio was 4-fold, and two replicate wells were detected for each concentration, MK1775 was used as the standard control.
WEE1, purchased from CarnaBiosciences, Inc., Item No. 05-177; dimethyl sulfoxide, purchased from Sigma-Aldrich, Item No. D8418; ATP, purchased from Sigma-Aldrich, Item No. A7699; DTT solution, purchased from Sigma-Aldrich, Item No. 43816; protein tyrosine kinase (PTK) substrate (poly-Glu-Tyr), purchased from Sigma-Aldrich, Item No. P4476; P-Tyr (PY99), purchased from Santa Cruz, Item No. sc-7020; Anti-mouse IgG HRP-linked Antibody, purchased from Santa Cruz, Item No. 7076S; TMB liquid Substrate System, purchased from Sigma-Aldrich, Item No. T0440; Costar Stripwell Microplate No Lid 1×8 Flat Bottom, Certified High Binding, purchased from Sigma-Aldrich, Item No. 42592; 96-well compound plate, purchased from Thermo Scientific, Item No. 267245.
• 1. Coating substrate: 1) An appropriate volume of substrate storage solution protein tyrosine kinase (PTK) substrate (poly-Glu-Tyr) was taken, diluted 10 times with PBS, and the concentration was diluted from […]. The mixture was added to a high adsorption 96-well plate at 125 μL per well. The plate was placed in an incubator at 37° C. for overnight coating. 2) After 24 hours, the 96-well plate was taken out, the liquid in the 96-well plate was poured out, cleaned with washing buffer for 3 times, and the incubator at 37° C. was inverted and dried for 2 hours. • 2. Compound preparation and transfer: 1) compound dilution: 10 mM of the test compound storage solution was taken, the compound in 96-well compound plate was diluted with DMSO in multiple steps to obtain the initial concentration of 100× compound as the first concentration, and then DMSO was used for 4-fold gradient dilution, for a total of 6 concentrations; after that, 2 μL of the gradient dilution solution was added to 48 μL of 1× reaction buffer respectively to prepare 4× compound; 2) 4× compounds were transferred: 10 μL of 4× compounds from the 96-well compound plate configured in the previous step were transferred into the dried high adsorption 96-well plate; 10 μL of the following liquids were added to the compound-free control wells and ATP-control wells: 2 μL of DMSO was added to 48 μL of 1× reaction buffer. • 3. Enzyme reaction stage: 1) WEE1 kinase and ATP were prepared into 2× enzyme solution and 4×ATP solution respectively with 1× reaction buffer. In this screening, the final concentration of WEE1 kinase was: 0.15 ng/μL and the final concentration of ATP was: […]; 2) 20 μL of enzyme solution of 2 was added to the high adsorption 96-well plate; 3) 10 μL of 4×ATP solution was added to the high adsorption 96-well plate and 10 μL of 1× reaction buffer was added to the ATP-control group; 4) the plate was placed in HERAEUS Multifuge X1R centrifuge at 2000 rpm for 20 s and then placed at room temperature and reacted for 60 min. • 4. Reaction termination stage: 1) the reaction mixture in the plate was poured out, 200 μL of washing buffer was added to each well, and washed for 5 times; the primary antibody P-Tyr (PY99) (dilution ratio 1:2000) was added, 100 μL per well, at room temperature for 30 min. 2) The primary antibody in the plate was poured out, 200 μL of washing buffer was added to each well, and washed for 5 times; the second antibody Anti-mouse IgG HRP-linked Antibody (dilution ratio 1:2000) was added, 100 μL per well, at room temperature for 30 min.

[1] = Bioavailability test in vivo in mice (pharmacokinetics, iv and intragastric); parameters: species or system ICR mice; details: for Cmax / MRT / Tmax / clearance / half-life / Vd / bioavailability: ICR, mouse, plasma; for bioavailability: po 10 mg/kg vs iv 3 mg/kg, read-out: F (absolute bioavailability)
Description: 404.6 μL of DMSO was added to the compound powder of the present disclosure until the compound was completely dissolved, and 50 mg/mL mother liquor was prepared in a clarified state.
The compound of the present disclosure: 24 μL of mother liquor was accurately measured, diluted to 4 mL according to the ratio of 0.9% normal saline:PEG400=8:2, the preparation concentration was 0.3 mg/mL, the solution was in a clarified state, and it was used as intravenous administration solution. In addition, 80 μL mother liquor was accurately measured, and 0.5% CMC-Na was added to 8 mL to grind it into a uniform suspension with a concentration of 0.5 mg/mL, which was used as intragastric administration solution.
(§1) Intravenous group: 24 ICR mice, 20±2 g, were given the intravenous administration solution of the compound of the present disclosure by intravenous injection, with the volume of 10 mL/kg, with the dose of 3 mg/kg, the blood was taken from the fundus venous plexus of mice, 2, 5, 15, 30, 60, 90, 120, 240, 360, 480, 600 and 1440 minutes before and after administration.
as §1, with “Intragastric group:” for “Intravenous group:”, “the intragastric” for “the intravenous”, “by intragastric” for “by intravenous”, “of 20” for “of 10”, “of 10” for “of 3”, “mice,” for “mice, 2,”
Blood sample was centrifuged at 8000 rpm for 5 min, and the plasma was stored in a centrifuge tube at −20° C. for later use.
300 μL of acetonitrile containing internal standard (Propranolol, 25 ng/mL) was added to 50 μL of plasma samples to precipitate protein, vortexed for 10 min, 6000 g, 4° C., centrifuged for 10 min; the supernatant before intravenous injection for 1 hour was taken, diluted 10 times with acetonitrile containing internal standard, the rest supernatant was kept undiluted, centrifuged for 10 min again at 6000 g, 4° C., and the supernatant was taken and then injected into a 96-well plate.
Dose; peak concentration: Cmax; peak time: Tmax; area under the drug-time curve from AUClast 0 to time t; half-life: T1/2; mean retention time: MRT; clearance: Cl; apparent distribution volume: Vz; steady-state distributed volume: Vss; absolute bioavailability: F.
The pharmacokinetic parameters of the compound in mice after intravenous injection or intragastric administration were shown in Table 4 and Table 5 below.

[2] = iv, 3 mg/kg, iv, 3 mg/kg, read-out: Vss
[3] = iv, 3 mg/kg, iv, 3 mg/kg, read-out: Vz

T1 sequence (P30291 whole entry): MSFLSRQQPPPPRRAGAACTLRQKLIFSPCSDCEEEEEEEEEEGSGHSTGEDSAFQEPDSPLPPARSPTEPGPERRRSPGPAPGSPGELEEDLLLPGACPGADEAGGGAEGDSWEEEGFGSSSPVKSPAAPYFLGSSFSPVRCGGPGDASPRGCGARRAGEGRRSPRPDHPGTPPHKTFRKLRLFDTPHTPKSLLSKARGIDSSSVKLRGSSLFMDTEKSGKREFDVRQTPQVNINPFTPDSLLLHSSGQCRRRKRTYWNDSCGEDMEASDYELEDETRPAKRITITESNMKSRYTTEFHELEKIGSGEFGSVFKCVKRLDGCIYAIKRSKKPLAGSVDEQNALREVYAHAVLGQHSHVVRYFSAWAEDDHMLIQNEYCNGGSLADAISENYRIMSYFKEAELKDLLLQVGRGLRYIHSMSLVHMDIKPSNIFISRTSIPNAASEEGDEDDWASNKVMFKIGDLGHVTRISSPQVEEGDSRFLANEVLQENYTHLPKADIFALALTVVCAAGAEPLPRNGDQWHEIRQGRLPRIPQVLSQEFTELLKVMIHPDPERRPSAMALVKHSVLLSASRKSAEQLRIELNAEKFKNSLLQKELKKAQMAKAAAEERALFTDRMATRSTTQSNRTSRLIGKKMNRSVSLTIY

Structure (SMILES): C=CCn1c(=O)c2cnc(Nc3ccc(C4CCC(N(C)C)CC4)cc3)nc2n1-c1cccc(C(C)(C)O)n1 (single isomer, unassigned) [Compound I-1-1]
- IC50 (WEE1 kinase): 1.9 nM
- Cmax ([1]; iv, 3 mg/kg): 701 ± 142 ng/mL
- MRT ([1]; iv, 3 mg/kg): 1.75 ± 0.46 h
- Tmax ([1]; iv, 3 mg/kg): 0.03 h
- clearance ([1]; iv, 3 mg/kg): 129 mL/min/kg
- half-life ([1]; iv, 3 mg/kg): 4.31 ± 1.51 h
- Vd [1, 2]: 13.6 ± 3.95 L/kg
- Vd [1, 3]: 48.5 ± 18.4 L/kg
- bioavailability [1]: 42.6%
- Cmax ([1]; po (intragastric), 10 mg/kg): 245 ± 220 ng/mL
- MRT ([1]; po (intragastric), 10 mg/kg): 4.33 ± 9.02 h
- Tmax ([1]; po (intragastric), 10 mg/kg): 2.5 ± 1.32 h
- half-life ([1]; po (intragastric), 10 mg/kg): 3.1 ± 9.02 h
- AUClast ([1]; iv, 3 mg/kg): 372.5 ± 24.38 (h) (ng/mL)
- AUClast ([1]; po (intragastric), 10 mg/kg): 528.6 ± 331.1 (h) (ng/mL)

Structure (SMILES): C=CCn1c(=O)c2cnc(Nc3ccc(C4CCC(C(=O)N(C)C)CC4)cc3)nc2n1-c1cccc(C(C)(C)O)n1 (centres unmarked) [Compound I-6]
- IC50 (WEE1 kinase): 6.76 nM

Structure (SMILES): C=CCn1c(=O)c2cnc(Nc3ccc(C4CCC(N5CCC5)CC4)cc3)nc2n1-c1cccc(C(C)(C)O)n1 (centres unmarked) [Compound I-8]
- IC50 (WEE1 kinase): 1.52 nM
- Cmax ([1]; iv, 3 mg/kg): 644 ± 132 ng/mL
- MRT ([1]; iv, 3 mg/kg): 1.11 ± 0.08 h
- Tmax ([1]; iv, 3 mg/kg): 0.03 h
- clearance ([1]; iv, 3 mg/kg): 155 mL/min/kg
- half-life ([1]; iv, 3 mg/kg): 1.22 ± 0.1 h
- Vd [1, 2]: 10.3 ± 0.86 L/kg
- Vd [1, 3]: 16.3 ± 2.48 L/kg
- bioavailability [1]: 60.3%
- Cmax ([1]; po (intragastric), 10 mg/kg): 58.1 ± 7.09 ng/mL
- MRT ([1]; po (intragastric), 10 mg/kg): 3.47 ± 1.22 h
- Tmax ([1]; po (intragastric), 10 mg/kg): 1.67 ± 0.29 h
- half-life ([1]; po (intragastric), 10 mg/kg): 1.57 ± 0.39 h
- AUClast ([1]; iv, 3 mg/kg): 317.5 ± 34.41 (h) (ng/mL)
- AUClast ([1]; po (intragastric), 10 mg/kg): 637.9 ± 302.3 (h) (ng/mL)

Structure (SMILES): C=CCn1c(=O)c2cnc(Nc3ccc(C4CCC(C(=O)NC5CC5)CC4)cc3)nc2n1-c1cccc(C(C)(C)O)n1 (centres unmarked) [Compound I-17]
- IC50 (WEE1 kinase): 4.05 nM

Structure (SMILES): C=CCn1c(=O)c2cnc(Nc3ccc(C4CCC(NC(=N)N)CC4)cc3)nc2n1-c1cccc(C(C)(C)O)n1 (centres unmarked) [Compound I-20]
- IC50 (WEE1 kinase): 3.45 nM

Structure (SMILES): C=CCn1c(=O)c2cnc(Nc3ccc(C4CCC(NC)CC4)cc3)nc2n1-c1cccc(C2(O)COC2)n1 (centres unmarked) [Compound I-33]
- IC50 (WEE1 kinase): 4.22 nM

Structure (SMILES): C=CCn1c(=O)c2cnc(Nc3ccc(C4CCC(N(C)C(=O)C5CC5)CC4)cc3)nc2n1-c1cccc(C2(O)COC2)n1 (centres unmarked) [Compound I-34]
- IC50 (WEE1 kinase): 3.3 nM

Structure (SMILES): C=CCn1c(=O)c2cnc(Nc3ccc(C4CCC(C#N)CC4)cc3)nc2n1-c1cccc(C2(O)COC2)n1 (centres unmarked) [Compound I-38]
- IC50 (WEE1 kinase): 1.68 nM

Structure (SMILES): C=CCn1c(=O)c2cnc(Nc3ccc(C4CCC(C(=O)OCC)CC4)cc3)nc2n1-c1cccc(C2(O)COC2)n1 (centres unmarked) [Compound I-39]
- IC50 (WEE1 kinase): 2.08 nM

Structure (SMILES): C=CCn1c(=O)c2cnc(Nc3ccc(C4CCC(C(=O)O)CC4)cc3)nc2n1-c1cccc(C2(O)COC2)n1 (centres unmarked) [Compound I-40]
- IC50 (WEE1 kinase): 4.58 nM

Structure (SMILES): C=CCn1c(=O)c2cnc(Nc3ccc4c(c3)CCC(N(C)C)C4)nc2n1-c1cccc(C(C)(C)O)n1 (centres unmarked) [Control 2, reference compound]
- IC50 (WEE1 kinase): 1.98 nM
- Cmax ([1]; iv, 3 mg/kg): 646 ± 76.8 ng/mL
- MRT ([1]; iv, 3 mg/kg): 0.86 ± 0.16 h
- Tmax ([1]; iv, 3 mg/kg): 0.03 h
- clearance ([1]; iv, 3 mg/kg): 188 mL/min/kg
- half-life ([1]; iv, 3 mg/kg): 1.37 ± 0.33 h
- Vd [1, 2]: 9.69 ± 0.96 L/kg
- Vd [1, 3]: 22.2 ± 3.29 L/kg
- bioavailability [1]: 9.19%
- Cmax ([1]; po (intragastric), 10 mg/kg): 27.8 ± 4.76 ng/mL
- MRT ([1]; po (intragastric), 10 mg/kg): 3.78 ± 1.56 h
- Tmax ([1]; po (intragastric), 10 mg/kg): 1.67 ± 2.02 h
- half-life ([1]; po (intragastric), 10 mg/kg): 2.51 ± 1.85 h
- AUClast ([1]; iv, 3 mg/kg): 261.52 ± 26.93 (h) (ng/mL)
- AUClast ([1]; po (intragastric), 10 mg/kg): 80.15 ± 9.62 (h) (ng/mL)

Other lines, results leading:

- IC50 (WEE1 kinase): 6.53 nM
Structure (SMILES): C=CCn1c(=O)c2cnc(Nc3ccc(C4CCC(C(=O)N5CCC5)CC4)cc3)nc2n1-c1cccc(C(C)(C)O)n1 (centres unmarked) [Compound I-7]

- IC50 (WEE1 kinase): 3.89 nM
Structure (SMILES): C=CCn1c(=O)c2cnc(Nc3ccc(C4CCC(NS(C)(=O)=O)CC4)cc3)nc2n1-c1cccc(C(C)(C)O)n1 (centres unmarked) [Compound I-19, N-(4-(4-((2-allyl-1-(6-(2-hydroxypropan-2-yl)pyridin-2-yl)-3-oxo-2,3-dihydro-1H-pyrazolo[3,4-d]pyrimidin-6-yl)amino)phenyl)cyclohexyl)methanesulfonamide]

- IC50 (WEE1 kinase): 0.71 nM
Structure (SMILES): C=CCn1c(=O)c2cnc(Nc3ccc(C4CCC(C#N)CC4)cc3)nc2n1-c1cccc(C(C)(C)O)n1 (centres unmarked) [Compound I-23]

- IC50 (WEE1 kinase): 2.05 nM
Structure (SMILES): C=CCn1c(=O)c2cnc(Nc3ccc(C4CC(N(C)C)C4)cc3)nc2n1-c1cccc(C(C)(C)O)n1 (centres unmarked) [Compound I-31, 2-allyl-6-((4-(3-(dimethylamino)cyclobutyl)phenyl)amino)-1-(6-(2-hydroxypropan-2-yl)pyridin-2-yl)-1,2-dihydro-3H-pyrazolo[3,4-d]pyrimidin-3-one]

- IC50 (WEE1 kinase): 7.39 nM
Structure (SMILES): C=CCn1c(=O)c2cnc(Nc3ccc(C4CCC(=NOC)CC4)cc3)nc2n1-c1cccc(C(C)(C)O)n1 (centres unmarked) [Compound I-32]

- IC50 (WEE1 kinase): 1.99 nM
Structure (SMILES): C=CCn1c(=O)c2cnc(Nc3ccc(C4CCC(N5CCOC5=O)CC4)cc3)nc2n1-c1cccc(C2(O)COC2)n1 (centres unmarked) [Compound I-37]
